The source of these data is patent publication US20250145665A1, “MACROCYCLIC PEPTIDES USEFUL AS MODULATORS OF TNF ALPHA” (Bristol-Myers Squibb Company, priority 2023, published 2025).

Starred links: 1 amine or outer side, 2 acyl side, 3 side chain; linkers in the order of their positions; H or OH if unused. Positions of bridges follow the written chain, without caps; N, C: chain ends. Non-standard residues stand in square brackets, D forms with d. Residues, ends and D or L forms follow the SMILES beside them. Bip(4'-NHCO-C6H4-4-CH2COOH) = N[C@@H](Cc1ccc(-c2ccc(NC(=O)c3ccc(CC(=O)O)cc3)cc2)cc1)C(=O)O; X5 = Cn1nc(C(=O)Nc2ccc(-c3ccc(C[C@H](N[*:1])C(=O)[*:2])cc3)cc2)c2ccccc21; Bip(4'-COOH) = N[C@@H](Cc1ccc(-c2ccc(C(=O)O)cc2)cc1)C(=O)O; Bip(4'-NHAc) = CC(=O)Nc1ccc(-c2ccc(C[C@H](N)C(=O)O)cc2)cc1; Pro(cis-4-Ph) = O=C(O)[C@@H]1C[C@H](c2ccccc2)CN1; Ala(morpholin-4-yl) = N[C@@H](CN1CCOCC1)C(=O)O; Bip = N[C@@H](Cc1ccc(-c2ccccc2)cc1)C(=O)O; Val(3-OH) = CC(C)(O)[C@H](N)C(=O)O; 2Pal = N[C@@H](Cc1ccccn1)C(=O)O; Cha = N[C@@H](CC1CCCCC1)C(=O)O; Chg = N[C@H](C(=O)O)C1CCCCC1; Tle = CC(C)(C)[C@H](N)C(=O)O; Sar = CNCC(=O)O A value given as a limit tells only on which side of the number the result lay.

In this assay the target is TNFα (Homo sapiens, UniProt P01375). Briefly: TNF-Induced HEK-Blue Assay. It is filed as cell-based. As to conditions: HEK-Blue-CD40L cells, NF-kB-driven secreted alkaline phosphatase reporter; TNFα 0.5 ng/ml; 18 h; read-out: TNF induced HEK-Blue assay IC50 value.
TNFα, sequence (P01375 77-233 limits assumed): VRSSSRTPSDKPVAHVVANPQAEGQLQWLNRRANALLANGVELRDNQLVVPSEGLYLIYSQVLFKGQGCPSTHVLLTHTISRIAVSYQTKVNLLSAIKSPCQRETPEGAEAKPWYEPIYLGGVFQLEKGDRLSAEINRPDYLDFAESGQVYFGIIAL
For the molecule `CC(C)C[C@@H]1NC(=O)[C@H](CCCNC(=N)N)NC(=O)[C@H](C(C)C)NC(=O)[C@@H]2CCCN2C(=O)[C@H](C(C)C)NC(=O)[C@H](CCCNC(=N)N)NC(=O)[C@H](CC(=O)O)NC(=O)[C@@H]2CCCN2C(=O)CN(C)C(=O)[C@H](Cc2ccc(-c3ccccc3)cc2)NC(=O)[C@H](Cc2ccc(-c3ccccc3)cc2)NC(=O)[C@H](Cc2ccccn2)NC(=O)CSC[C@@H](C(=O)NCC(N)=O)NC1=O` [Example 30] ({CH2CO}-[2Pal][Bip][Bip][Sar]PDRVPVRLCG-NH2; thioether N-13), the IC50 lay in the range of 200 to 2000 nM.
In the case of `CC(C)C[C@@H]1NC(=O)[C@H](CCCNC(=N)N)NC(=O)[C@H](C(C)C)NC(=O)[C@@H]2CCCN2C(=O)[C@H](C(C)C)NC(=O)[C@H](CCCNC(=N)N)NC(=O)[C@H](CC(=O)O)NC(=O)[C@@H]2CCCN2C(=O)CN(C)C(=O)[C@H](Cc2ccc(-c3ccccc3)cc2)NC(=O)[C@H](Cc2ccc(-c3ccccc3)cc2)NC(=O)[C@H](CCCCN)NC(=O)CSC[C@@H](C(=O)NCC(N)=O)NC1=O` [Example 6] ({CH2CO}-K[Bip][Bip][Sar]PDRVPVRLCG-NH2; thioether N-13), the 50% inhibitory concentration (IC50) was 200 to 2000 nM.
Consider `CC[C@H](C)[C@@H]1NC(=O)[C@@H](CCCNC(=N)N)NC(=O)[C@H](CC(=O)O)NC(=O)[C@H](Cc2cnc[nH]2)NC(=O)CN(C)C(=O)[C@H](Cc2ccc(-c3ccc(NC(=O)c4ccc(CC(=O)O)cc4)cc3)cc2)NC(=O)[C@H](Cc2ccc(-c3ccccc3)cc2)NC(=O)[C@H](C(C)(C)C)NC(=O)CSC[C@@H](C(=O)NCC(N)=O)NC(=O)[C@H](CC(C)C)NC(=O)[C@H](Cc2cnc[nH]2)NC(=O)[C@H](C(C)C)NC(=O)[C@@H]2CCCN2C1=O` [Example 485] ({CH2CO}-[Tle][Bip][Bip(4'-NHCO-C6H4-4-CH2COOH)][Sar]HD[dR]IPVHLCG-NH2; thioether N-13), for which the IC50 was < 50 nM.
In the case of `CC(C)C[C@@H]1NC(=O)[C@H](Cc2ccc(O)cc2)NC(=O)[C@H](C(C)C)NC(=O)[C@@H]2CCCN2C(=O)[C@H](C(C)C)NC(=O)[C@@H](CCCNC(=N)N)NC(=O)[C@H](CC(=O)O)NC(=O)[C@H](Cc2ccc(O)cc2)NC(=O)CN(C)C(=O)[C@H](Cc2ccc(-c3ccccc3)cc2)NC(=O)[C@H](Cc2ccc(-c3ccc(C(=O)O)cc3)cc2)NC(=O)[C@H](CC2CCCCC2)NC(=O)CSC[C@@H](C(=O)NCC(N)=O)NC1=O` [Example 187] ({CH2CO}-[Cha][Bip(4'-COOH)][Bip][Sar]YD[dR]VPVYLCG-NH2; thioether N-13), the IC50 was in the range of 50 to 200 nM.
As to `CC(C)C[C@@H]1NC(=O)[C@H](CCCNC(=N)N)NC(=O)[C@H](C(C)C)NC(=O)[C@@H]2CCCN2C(=O)[C@H](C(C)C)NC(=O)[C@H](CCCNC(=N)N)NC(=O)[C@H](CC(=O)O)NC(=O)[C@H](Cc2ccc(O)cc2)NC(=O)CN(C)C(=O)[C@H](Cc2ccc(-c3ccccc3)cc2)NC(=O)[C@H](Cc2ccc(-c3ccccc3)cc2)NC(=O)[C@H](C(C)(C)O)NC(=O)CSC[C@@H](C(=O)NCC(N)=O)NC1=O` [Example 65] ({CH2CO}-[Val(3-OH)][Bip][Bip][Sar]YDRVPVRLCG-NH2; thioether N-13), the concentration for half-maximal inhibition (IC50) is 50 to 200 nM.
With `CC(C)C[C@@H]1NC(=O)[C@H](CCCNC(=N)N)NC(=O)[C@H](C2CCCCC2)NC(=O)[C@@H]2CCCN2C(=O)[C@H](C(C)C)NC(=O)[C@@H](CCCNC(=N)N)NC(=O)[C@H](CC(=O)O)NC(=O)[C@H](Cc2ccccn2)NC(=O)CN(C)C(=O)[C@H](Cc2ccc(-c3ccccc3)cc2)NC(=O)[C@H](Cc2ccc(-c3ccccc3)cc2)NC(=O)[C@H](CN2CCOCC2)NC(=O)CSC[C@@H](C(=O)NCC(N)=O)NC1=O` [Example 204] ({CH2CO}-[Ala(morpholin-4-yl)][Bip][Bip][Sar][2Pal]D[dR]VP[Chg]RLCG-NH2; thioether N-13), the IC50 lay in the range of 50 to 200 nM.
Consider `CC(=O)Nc1ccc(-c2ccc(C[C@@H]3NC(=O)[C@H](Cc4ccc(-c5ccccc5)cc4)NC(=O)[C@H](CN4CCOCC4)NC(=O)CSC[C@@H](C(=O)NCC(N)=O)NC(=O)[C@H](CC(C)C)NC(=O)[C@H](CCCNC(=N)N)NC(=O)[C@H](C(C)C)NC(=O)[C@@H]4CCCN4C(=O)[C@H](Cc4ccc(O)cc4)NC(=O)[C@H](CCCNC(=N)N)NC(=O)[C@H](CC(=O)O)NC(=O)[C@@H]4CCCN4C(=O)CN(C)C3=O)cc2)cc1` [Example 127] ({CH2CO}-[Ala(morpholin-4-yl)][Bip][Bip(4'-NHAc)][Sar]PDRYPVRLCG-NH2; thioether N-13), for which the IC50 is 50 to 200 nM.
For the molecule `CC(=O)Nc1ccc(-c2ccc(C[C@@H]3NC(=O)[C@H](Cc4ccc(-c5ccccc5)cc4)NC(=O)[C@H](CN4CCOCC4)NC(=O)CSC[C@@H](C(=O)NCC(N)=O)NC(=O)[C@H](CC(C)C)NC(=O)[C@H](Cc4ccc(O)cc4)NC(=O)[C@H](C(C)C)NC(=O)[C@@H]4CCCN4C(=O)[C@H](C(C)C)NC(=O)[C@H](CCCNC(=N)N)NC(=O)[C@H](CC(=O)O)NC(=O)[C@H](Cc4ccccn4)NC(=O)CN(C)C3=O)cc2)cc1` [Example 208] ({CH2CO}-[Ala(morpholin-4-yl)][Bip][Bip(4'-NHAc)][Sar][2Pal]DRVPVYLCG-NH2; thioether N-13), the IC50 lay in the range of 50 to 200 nM.
For the molecule `CC[C@H](C)[C@@H]1NC(=O)[C@@H](CCCNC(=N)N)NC(=O)[C@H](CC(=O)O)NC(=O)[C@H](Cc2cnc[nH]2)NC(=O)CN(C)C(=O)[C@H](Cc2ccc(-c3ccc(NC(=O)c4nn(C)c5ccccc45)cc3)cc2)NC(=O)[C@H](Cc2ccc(-c3ccccc3)cc2)NC(=O)[C@H](CC2CCCCC2)NC(=O)CSC[C@@H](C(=O)NCC(N)=O)NC(=O)[C@H](CC(C)C)NC(=O)[C@H](Cc2cnc[nH]2)NC(=O)[C@H](C(C)C)NC(=O)[C@@H]2CCCN2C1=O` [Example 341] ({CH2CO}-[Cha][Bip][X5][Sar]HD[dR]IPVHLCG-NH2; thioether N-13), the IC50 was < 50 nM.
For `CC(C)C[C@@H]1NC(=O)[C@H](Cc2ccc(O)cc2)NC(=O)[C@H](C(C)C)NC(=O)CN(C)C(=O)[C@H](C(C)C)NC(=O)[C@H](CCCNC(=N)N)NC(=O)[C@H](CC(=O)O)NC(=O)[C@@H]2CCCN2C(=O)CN(C)C(=O)[C@H](Cc2ccc(-c3ccccc3)cc2)NC(=O)[C@H](Cc2ccc(-c3ccccc3)cc2)NC(=O)[C@H](C(C)(C)O)NC(=O)CSC[C@@H](C(=O)NCC(N)=O)NC1=O` [Example 141] ({CH2CO}-[Val(3-OH)][Bip][Bip][Sar]PDRV[Sar]VYLCG-NH2; thioether N-13) the value was 50 to 200 nM; for `CC(C)C[C@@H]1NC(=O)[C@H](Cc2ccc(O)cc2)NC(=O)[C@H](C(C)C)NC(=O)[C@@H]2CCCN2C(=O)[C@H](C(C)C)NC(=O)[C@@H](CCCNC(=N)N)NC(=O)[C@H](CC(=O)O)NC(=O)[C@H](Cc2ccccn2)NC(=O)CN(C)C(=O)[C@H](Cc2ccc(-c3ccccc3)cc2)NC(=O)[C@H](Cc2ccc(-c3ccccc3)cc2)NC(=O)[C@H](CN2CCOCC2)NC(=O)CSC[C@@H](C(=O)NCC(N)=O)NC1=O` [Example 144] ({CH2CO}-[Ala(morpholin-4-yl)][Bip][Bip][Sar][2Pal]D[dR]VPVYLCG-NH2; thioether N-13), < 50 nM; for `CC(C)C[C@@H]1NC(=O)[C@H](Cc2ccc(O)cc2)NC(=O)[C@H](C(C)C)NC(=O)[C@@H]2CCCN2C(=O)[C@H](C(C)C)NC(=O)[C@@H](CCCNC(=N)N)NC(=O)[C@H](CC(=O)O)NC(=O)[C@@H]2C[C@H](c3ccccc3)CN2C(=O)CN(C)C(=O)[C@H](Cc2ccc(-c3ccccc3)cc2)NC(=O)[C@H](Cc2ccc(-c3ccccc3)cc2)NC(=O)[C@H](CN2CCOCC2)NC(=O)CSC[C@@H](C(=O)NCC(N)=O)NC1=O` [Example 98] ({CH2CO}-[Ala(morpholin-4-yl)][Bip][Bip][Sar][Pro(cis-4-Ph)]D[dR]VPVYLCG-NH2; thioether N-13), 50 to 200 nM.
